The subject of data set [1] is Y79 retinoblastoma xenograft. In words: Orthotopic retinoblastoma xenograft in eyes of newborn rats. The data set is classed as in vivo, rat.
From the text: For some experiments, the retinoblastoma cells were labeled with a GFP transgene to unambiguously establish tumor boundaries.
To establish a baseline prior to chemotherapy treatment in our retinoblastoma xenograft model, we analyzed cell number, survival, proliferation, apoptosis, and gene expression 2 weeks after engraftment. One hour before analysis, the rats received an injection of BrdU to label the cells in the S-phase of the cell cycle, a measure of the fraction of dividing cells. The engrafted cells were microdissected from the normal tissue and dissociated; the total cell number was then scored. Calcein and ethidium bromide were used to measure metabolically active cells and dead cells, respectively. […] The fraction of dividing cells was estimated by staining with an anti-BrdU antibody and scoring the fraction of immunopositive cells. […] To estimate the proportion of cells that had initiated apoptosis, we performed a TUNEL assay.
After one course of treatment, the transplanted retinoblastoma cells were analyzed for viability and proliferation as described above.
The next data set has as its system Weril cells. Briefly: Response of cultured retinoblastoma cells to drugs, proportion of viable cells (Weri1). The data set is classed as cell-based, human. Conditions: 8 hours exposure, assayed 3 days later. From the text:
(§1) Cell Culture. Y79 and Weri1 cells were obtained from the American Type Culture Collection (Manassas, Va.) and maintained in culture in RPMI medium with 10% FCS (McFall, R. C. et al., “Characterization of a new continuous cell line derived from a human retinoblastoma”, Cancer Res 37: 1003-10 (1977)). Stable lines expressing GFP were generated by transfecting pTET-1 (M.A.D. unpublished) into Y79 and Weril cells by using TransFast (Promega, Madison, Wis.); clones were isolated in the presence of hygromycin. To measure live cells, 0.5 ug/ml calcein was used; to measure dead cells, 4 uM ethidium bromide was used.
(§2) Viable Cell Calculation Following Drug Treatment. […] The proportion of cells that had initiated apoptosis (T) was determined by a TUNEL assay.
(§3) Response of Cultured Retinoblastoma Cells to Chemotherapeutic Drugs. […] For all of the cell culture studies, retinoblastoma cells were exposed to drugs at a cell density corresponding to their optimal proliferation and cell survival. The cell number, proportion of metabolically active cells, and proportion of apoptotic cells were combined to generate the proportion of viable cells (see Materials and Methods for calculations). The proportion of dividing cells was estimated by labeling the cultures with BrdU for 1 hour. Initially, cells were exposed to TPT, CBP, or VCR for 8 hours at concentrations ranging from 1 nM to 200 uM, and the cultures were assayed 3 days later.

The subject of data set [2] is Y79 and Weril retinoblastoma cells. Briefly: Combination, time course, FACS and DNA-content studies in cultured retinoblastoma cells. The data set is classed as cell-based, human.
From the text: as §1
Immunolabeling and TUNEL and BrdU Assays. Y79 and Weri1 retinoblastoma cells were immunolabeled as described previously for dissociated mouse retinae (Dyer, M. A. & Cepko, C. L., “p27Kip1 and p57Kip2 regulate proliferation in distinct retinal progenitor cell population”, J. of Neurosci 21: 4259-71 (2001); Zhu, C. C. et al., “Six2-mediated auto repression and eye development requires its interaction with members of the Groucho-related family of co-repressors”, Development 129: 2835-49 (2002); Dyer, M. A. & Cepko, C. L., “p57(Kip2) regulates progenitor cell proliferationand amacrine intemeuron development in the mouse retina”, Development 127: 3593-605 (2000)). For in vivo studies, BrdU (100 mg/kg body weight) was administered via tail vein injection. BrdU and TUNEL assays were carried out as described previously (Dyer, M. A. et. al., id, Zhu, C. C. et. al., id; Dyer, M. A. et. al., id). Detailed protocols are available at http://www.stjude.org/dyer.
Fluorescent-Activated Cell Sorting. DNA content was analyzed by dissociating tumors with trypsin (Dyer, M. A. et. al., id; Zhu, C. C. et. al., id; Dyer, M. A. et. al., id) and sorting cells by fluorescent-activated cell sorting (FACS). Cells were washed with PBS, and resuspended in a solution containing 0.05 mg/ml propidium iodide, 0.1% sodium citrate and, 0.1% Triton-X100. Samples were then treated with RNase, filtered through a 40-um nylon mesh, and analyzed on a FACScan (Beckton-Dickson, Franklin Lakes, N.J.).
as §2, §3
Following treatment, RNA was isolated and microarray hybridizations were carried out using the human H1 cDNA microarray (see Materials and Methods).
In these preliminary studies, we included an 8-h drug exposure, because that is the maximum period of drug exposure for children receiving chemotherapy. However, the time that tumor cells are exposed in situ is probably considerably shorter, so we performed a time course experiment to determine the minimum duration of exposure required for the full effect on retinoblastoma cell survival and proliferation.

The nature of the next data set: in vivo. The following applies: for Kp: rat, in vivo, iv. On the procedure: Pharmacology. Two-week-old rats were treated with TPT (Hycamtin; GlaxoSmithKline, Research Triangle Park, N.C.) at a maximum tolerated dose (MTD) of 2 mg/kg body weight, CBP (Paraplatin; Bristol-Myers Squibb, New York, N.Y.) at an MTD of 70 mg/kg, and VCR (Mayne Pharma (USA Inc., Paramus, N.J.) at an MTD of 0.5 mg/kg; all agents were administered via tail vein injection. TPT was measured by HPLC UV absorption as described (Thompson, J. et. al., id). Atomic absorption spectrometry of ultrafiltered and nonfiltered samples was used to measure platinum levels (Simpson, A. E. et al., “Transscleral diffusion of carboplatin: an in vitro and in vivo study”, Arch Ophthalmol 120: 1069-74 (2002)). Liquid scintillation was used to measure levels of [H^3]-VCR (70-90 Ci/mmol; PerkinElmer, Wellesley, Mass.). Mice received TPT, CBP, and VCR at a dose and schedule similar to that used to treat children with retinoblastoma (Schouten-Van Meeteren, A. Y. et al., “Overview: chemotherapy for retinoblastoma: an expanding area of clinical research”, Med Pediatr Oncol 38: 428-38 (2002)) or other brain tumors.
To measure retinal and vitreal penetration of TPT, CBP, and VCR, we injected each drug intravenously into 2-wk-old rats; this age corresponded to the stage of treatment in our xenograft model. Drug levels were measured in the vitreous, retina, and plasma at 3 min, 30 min, 1.5 h, 4 h, and 6 h after injection.

In data set [3] the test system is retinoblastoma. Conditions: subconjunctival administration; cited from earlier work.
The subject of another data set is Y79 and Weril cells. Briefly: Microarray gene expression response of retinoblastoma cells to drugs. The data set is classed as cell-based, human. The following applies: microarray analysis after treatment. The procedure:
Microarray Hybridization. The H1 human cDNA microarray was printed at the Hartwell Center for Bioinformatics & Biotechnology at St. Jude Children's Research Hospital. The gene list is available at http://www.ncbi.nlm.nih.gov/geo/ (GEO Accession: GLP345). RNA was isolated from approximately 20×10^6 cells in triplicate for each treatment using Trizol (Invitrogen, Carlsbad, Calif.), and 10 ug total RNA underwent one round of linear amplification using the RiboAmp System (Arcturus Applied Genomics, Carlsbad, Calif.) to yield 100 ug of RNA. The RNA was indirectly labeled using aa-dUTP and conjugated with Cy3 and Cy5. Data were then filtered (see http://www.ncbi.nlm.nih.gov/geo/; GLP345 for details), and cluster analysis was performed.
Following treatment, RNA was isolated and microarray hybridizations were carried out using the human H1 cDNA microarray (see Materials and Methods). […] Using the LD50 of TPT, we tested the combination of TPT and CBP and that of TPT and VCR. […] This effect was additive.
Microarray analysis provided even more information about the response of retinoblastoma cells to chemotherapeutic drugs. […] VCR treatment also altered the expression of a different cohort of genes in comparison to TPT treatment. […]

For a further data set, the system named is Y79 cells. In words: Response of cultured retinoblastoma cells to drugs, proportion of viable cells (Y79). The data set is classed as cell-based, human. Conditions: 8 hours exposure, assayed 3 days later.
From the text: as §1, §2, §3

Data set [4] concerns retinoblastoma. Conditions: low-dose, frequent versus infrequent, high-dose administration; cited from earlier work.
Data set [5] relates to primary human retinoblastoma tumors. In words: Enlarged nuclei in tumors removed from patients following VCR treatment. The data set is classed as in vivo. Conditions: human tumors treated with VCR; control primary tumors 4%±1%. An excerpt: We were surprised that VCR was not effective at halting retinoblastoma growth in the orthotopic xenograft model because VCR is often combined with other chemotherapeutic agents in the treatment of retinoblastoma in children. It was possible that there was a minor effect of VCR treatment that was masked in our system by the active proliferation and expansion of the xenograft. One of the hallmarks of VCR exposure is a nucleus with twice the genomic DNA content, because VCR blocks cytokinesis without halting cell cycle progression. To test if there was any VCR-mediated block of mitosis, we scored the proportion of large cells with twice the genomic DNA content in cultured cells, xenografts, and tumors removed from patients following VCR treatment. […] The proportion of enlarged nuclei in xenografts and primary human tumors following VCR treatment was similar to control xenografts (3%±2%) and primary tumors (4%±1%), respectively.

[6] abbreviates: 2-wk-old rats, intravenous, 3 min to 6 h.

This is an account of results in patent US20050086708A1, “Animal models of retinal tumorigenesis” (priority 2003, published 2005).

In the case of `N.N.O=C([O-])C1(C(=O)[O-])CCC1.[Pt+2]` [CBP, carboplatin], in data set [1] (2-wk-old rats, after one course of treatment, untreated 2.4±0.6×10^6), the cell number/eye is 0.79±0.29×10^6 cell number/eye. For the same compound, the LD50 turned out to be 5000 nM in the data set with Weril cells (Weri1 cells) and 4000 nM with Y79 cells. For the same compound, in data set [2], the “cell cycle arrest phase” value is recorded as “arrested in either the G1 or G2 phase”. Moreover, in data set [2] (time course experiment), the “exposure sufficient to achieve the maximum reduction in cell survival and proliferation” value worked out at 15 min. In “in vivo” (setting [6]), the AUC retina/plasma ratio amounted to 0.03. The AUC vitreous/plasma ratio in “in vivo” (setting [6]) came out at 0.59. Further, in the data set on retinoblastoma [3], the “effect on tumor size” value was “effective at reducing tumor size”. Also, the p53 pathway activation result in the data set on Y79 and Weril cells is on record as “not activated”.

Consider `CC[C@@]1(O)C(=O)OCc2c1cc1n(c2=O)Cc2cc3c(CN(C)C)c(O)ccc3nc2-1` [TPT, topotecan], for which the values for the LD50 in the data set on Weril cells (Weril cells) and in the data set with Y79 cells were 19 nM and 30 nM, respectively. Further, the “cell cycle arrest phase” value in data set [2] is given as “G2 arrest”. Also, the “proportion of cells arrested in G2 phase (FACS)” value is listed as 36% in data set [2] (exposed for 10 min) and 39% in data set [2] (exposed for 8 h). The “exposure sufficient to achieve the maximum reduction in cell survival and proliferation” value in data set [2] (time course experiment) was found to be 15 min. In addition, the Kp in the data set “in vivo” (AUC retina/plasma ratio) was found to be 0.7; in “in vivo” (AUC vitreous/plasma ratio), 0.38. In the data set with retinoblastoma [4], the “effect on tumor burden” value is “more effectively reduced the tumor burden”. For the same compound, in the data set on Y79 and Weril cells, the p53 pathway activation entry is “activated”.

As for `CC[C@]1(O)C[C@H]2CN(CCc3c([nH]c4ccccc34)[C@@](C(=O)OC)(c3cc4c(cc3OC)N(C=O)[C@H]3[C@@](O)(C(=O)OC)[C@H](OC(C)=O)[C@]5(CC)C=CCN6CC[C@]43[C@@H]65)C2)C1` [VCR, vincristine], the “effect on retinoblastoma cell survival” value in [1] (short-term assay, one course of treatment) is listed as “little effect”. The “proportion of enlarged nuclei (cell cycle progression without cytokinesis)” value was 2%±1% in data set [1] (xenografts treated with VCR, control xenografts 3%±2%) and 5%±1.5% in data set [5]. The LD50 worked out at 3 nM with Weril cells (Weril cells) and 5 nM with Y79 cells. Moreover, the “exposure time required to kill retinoblastoma cells in culture” value in data set [2] amounted to 4 h. In addition, in data set [2] (cultured cells, 5 nM for 8 h), the “cells with twice their normal DNA content” value is recorded as “Approximately 98%”. Besides, in data set [2] (time course experiment), the “exposure time of maximum decrease in viability” value is 4 h. Besides, the concentration ratio (Kp) in the data set “in vivo” (AUC retina/plasma ratio) came to 1; in “in vivo” (AUC vitreous/plasma ratio), 1.1.
